Data set [1] deals with Vascular endothelial growth factor receptor 2 (Homo sapiens, UniProt P35968). Briefly: Inhibition of GST-6His tagged VEGFR2 (unknown origin) using biotin-aminohexyl-EEEEYFELVAKKKK-NH2 peptide substrate incubated for 90 mins by HTRF assay.
In data set [2] the target is Serine/threonine-protein kinase B-raf (Homo sapiens, UniProt P15056). Nature of the data set: Inhibition of B-Raf (unknown origin).
Data set [3] has as its target T1, Serine/threonine-protein kinase TNNI3K (Homo sapiens, UniProt Q59H18).
T1 sequence (Q59H18 whole entry): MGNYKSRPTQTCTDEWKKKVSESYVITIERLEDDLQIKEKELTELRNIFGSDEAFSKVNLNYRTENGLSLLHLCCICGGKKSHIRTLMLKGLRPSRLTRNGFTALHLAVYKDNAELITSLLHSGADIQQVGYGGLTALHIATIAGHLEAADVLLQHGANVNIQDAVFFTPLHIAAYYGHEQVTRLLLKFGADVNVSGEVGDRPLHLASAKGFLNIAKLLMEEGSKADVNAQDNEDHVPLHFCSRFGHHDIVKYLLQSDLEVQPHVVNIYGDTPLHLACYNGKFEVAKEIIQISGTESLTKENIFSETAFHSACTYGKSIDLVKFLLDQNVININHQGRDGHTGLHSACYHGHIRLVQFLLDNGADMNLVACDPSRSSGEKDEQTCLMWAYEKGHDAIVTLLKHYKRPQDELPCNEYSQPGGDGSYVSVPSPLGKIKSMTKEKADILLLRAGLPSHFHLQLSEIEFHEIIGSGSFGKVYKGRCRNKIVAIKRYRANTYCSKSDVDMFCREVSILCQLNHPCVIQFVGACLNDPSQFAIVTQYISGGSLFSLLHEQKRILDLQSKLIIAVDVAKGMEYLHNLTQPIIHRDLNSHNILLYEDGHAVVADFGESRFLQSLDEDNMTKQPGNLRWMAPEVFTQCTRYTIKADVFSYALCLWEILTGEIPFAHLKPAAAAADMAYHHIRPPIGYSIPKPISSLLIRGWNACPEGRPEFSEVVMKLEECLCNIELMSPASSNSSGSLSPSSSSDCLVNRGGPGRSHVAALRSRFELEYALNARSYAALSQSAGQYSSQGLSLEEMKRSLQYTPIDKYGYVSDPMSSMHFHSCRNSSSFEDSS
Nature of the data set: Inhibition of TNNI3K (unknown origin).

For data set [4], the species on record is Homo sapiens. Briefly: Selectivity index, ratio of IC50 for inhibition of VEGFR2 (unknown origin) to IC50 for inhibition of TNNI3K (unknown origin).
Data set [5] is described as follows: Half life in po dosed rat administered as cassette dose. The data set is classed as ADME, organism-based. The following applies: in vivo.
Data set [6] in a line: Dose normalized AUC in po dosed rat administered as cassette dose. The data set is classed as ADME, organism-based. The following applies: in vivo.
Data set [7] in a line: Permeability of compound incubated for 2 hrs by liquid chromatography analysis. The data set is classed as ADME. The following applies: read-out: permeability.
Data set [8] concerns the target Mitogen-activated protein kinase 14 (Homo sapiens, UniProt Q16539). Nature of the data set: Inhibition of p38alpha (unknown origin).
Data set [9] is filed under the species Homo sapiens. Nature of the data set: Selectivity index, ratio of IC50 for inhibition of p38alpha (unknown origin) to IC50 for inhibition of TNNI3K (unknown origin).
Data set [10] concerns the target T1, Serine/threonine-protein kinase TNNI3K. Briefly: Inhibition of human myc-TNNI3K expressed in HEK-MSR2 cells assessed as reduction in TNNI3K autophosphorylation preincubated for 30 mins followed by pervanadate addition and measured after 20 mins by DELFIA. The data set is classed as cell-based.

Usually IC50 stands for the concentration at which inhibition is half-maximal. In general, half-life refers to the time needed for the level to fall by half in the phase considered. A lower half-life goes with fast loss.

Sequence of Vascular endothelial growth factor receptor 2 (P35968 whole entry): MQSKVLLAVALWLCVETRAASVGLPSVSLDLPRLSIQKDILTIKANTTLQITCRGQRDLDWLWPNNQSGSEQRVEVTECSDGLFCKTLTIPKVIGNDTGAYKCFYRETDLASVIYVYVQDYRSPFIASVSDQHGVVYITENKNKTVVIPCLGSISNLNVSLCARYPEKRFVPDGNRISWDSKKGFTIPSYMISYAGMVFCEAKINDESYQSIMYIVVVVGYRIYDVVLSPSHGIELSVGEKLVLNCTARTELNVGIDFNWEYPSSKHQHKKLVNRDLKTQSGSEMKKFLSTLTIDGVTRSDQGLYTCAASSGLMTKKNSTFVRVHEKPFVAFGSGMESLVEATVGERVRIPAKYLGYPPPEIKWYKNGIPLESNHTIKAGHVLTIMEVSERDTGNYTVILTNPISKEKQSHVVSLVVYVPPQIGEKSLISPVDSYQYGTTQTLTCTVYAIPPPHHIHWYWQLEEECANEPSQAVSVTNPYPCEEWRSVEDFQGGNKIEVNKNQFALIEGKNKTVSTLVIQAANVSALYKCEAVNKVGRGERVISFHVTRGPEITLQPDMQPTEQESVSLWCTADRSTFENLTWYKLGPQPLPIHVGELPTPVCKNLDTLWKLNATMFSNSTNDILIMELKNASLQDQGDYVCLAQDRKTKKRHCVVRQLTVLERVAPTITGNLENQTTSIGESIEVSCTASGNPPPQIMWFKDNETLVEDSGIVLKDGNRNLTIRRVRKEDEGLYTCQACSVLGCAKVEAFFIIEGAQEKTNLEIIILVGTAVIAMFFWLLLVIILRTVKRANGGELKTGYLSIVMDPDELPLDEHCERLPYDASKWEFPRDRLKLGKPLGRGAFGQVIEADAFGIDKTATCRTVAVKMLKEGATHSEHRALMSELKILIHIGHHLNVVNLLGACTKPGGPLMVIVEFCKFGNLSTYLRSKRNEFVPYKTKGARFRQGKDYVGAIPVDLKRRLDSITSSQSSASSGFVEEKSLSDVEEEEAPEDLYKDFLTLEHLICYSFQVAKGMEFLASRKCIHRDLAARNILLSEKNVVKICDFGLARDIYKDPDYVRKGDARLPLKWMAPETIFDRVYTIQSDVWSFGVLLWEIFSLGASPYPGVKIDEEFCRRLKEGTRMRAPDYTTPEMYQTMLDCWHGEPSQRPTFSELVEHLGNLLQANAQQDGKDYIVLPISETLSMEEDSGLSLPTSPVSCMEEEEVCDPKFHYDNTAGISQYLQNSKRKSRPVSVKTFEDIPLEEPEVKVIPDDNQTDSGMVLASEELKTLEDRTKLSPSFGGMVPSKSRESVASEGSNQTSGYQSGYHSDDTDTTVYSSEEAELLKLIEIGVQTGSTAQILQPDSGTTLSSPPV
Sequence of Serine/threonine-protein kinase B-raf (P15056 whole entry): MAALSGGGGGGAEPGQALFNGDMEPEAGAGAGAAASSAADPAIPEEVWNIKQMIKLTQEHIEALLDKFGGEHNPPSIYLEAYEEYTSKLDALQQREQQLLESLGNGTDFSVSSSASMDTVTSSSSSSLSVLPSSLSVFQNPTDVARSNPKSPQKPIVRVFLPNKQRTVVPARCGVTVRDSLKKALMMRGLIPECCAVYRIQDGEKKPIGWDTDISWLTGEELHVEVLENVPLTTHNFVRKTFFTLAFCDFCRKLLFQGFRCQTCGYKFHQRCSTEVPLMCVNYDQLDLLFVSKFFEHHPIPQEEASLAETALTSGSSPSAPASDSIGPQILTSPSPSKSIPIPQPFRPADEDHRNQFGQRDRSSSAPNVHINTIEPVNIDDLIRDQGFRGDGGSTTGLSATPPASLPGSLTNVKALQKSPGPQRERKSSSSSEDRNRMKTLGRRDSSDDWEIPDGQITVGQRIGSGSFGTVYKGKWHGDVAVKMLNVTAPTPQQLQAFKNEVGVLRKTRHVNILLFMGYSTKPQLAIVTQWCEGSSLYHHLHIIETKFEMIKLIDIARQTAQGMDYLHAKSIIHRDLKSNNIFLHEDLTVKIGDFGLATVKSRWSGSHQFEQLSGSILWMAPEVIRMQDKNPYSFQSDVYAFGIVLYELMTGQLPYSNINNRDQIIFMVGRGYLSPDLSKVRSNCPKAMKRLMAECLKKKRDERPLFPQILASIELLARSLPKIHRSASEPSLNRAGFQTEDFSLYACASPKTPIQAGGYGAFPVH
Sequence of Mitogen-activated protein kinase 14 (Q16539 whole entry): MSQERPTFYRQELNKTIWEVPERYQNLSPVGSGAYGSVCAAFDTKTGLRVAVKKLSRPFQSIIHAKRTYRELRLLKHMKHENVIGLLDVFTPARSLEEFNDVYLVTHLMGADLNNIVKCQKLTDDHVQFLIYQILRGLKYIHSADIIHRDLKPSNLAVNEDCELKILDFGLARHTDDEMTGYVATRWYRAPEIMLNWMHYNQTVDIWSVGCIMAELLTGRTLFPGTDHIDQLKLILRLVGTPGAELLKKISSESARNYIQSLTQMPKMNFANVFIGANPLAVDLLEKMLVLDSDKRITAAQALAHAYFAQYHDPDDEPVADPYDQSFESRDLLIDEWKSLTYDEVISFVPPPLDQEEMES

With `O=C(Nc1ccc(Oc2cc(NCCO)ncn2)cc1)Nc1cccc(C(F)(F)F)c1`, the IC50 in data set [1] was 79 nM; in [2], 1000 nM; in [3] it was 32 nM; in data set [8], 1000 nM; in data set [10] it was 40 nM. Besides, the Ratio IC50 in the data set filed under Homo sapiens [4] was found to be 2.5; in the data set listed under Homo sapiens [9], 31. This molecule had a half-life in data set [5] of 4.5 h. In data set [6], this molecule had an AUC/dose of 0.3 kg·h/L. Further, in data set [7], the Papp at 2 h came to 8.2 ×10⁻⁶ cm/s.

With `Nc1cc(Oc2ccc(NC(=O)Nc3cccc(C(F)(F)F)c3)cc2)ncn1`, the IC50 in [1] came to 7.9 nM; in [2], 1600 nM; in [3], 25 nM; in data set [8], 1000 nM; in [10], 16 nM. Besides, the Ratio IC50 was found to be 0.32 in the data set listed under Homo sapiens [4] and 40 in the data set filed under Homo sapiens [9]. In data set [5], this molecule had a half-life of 3.2 h. Also, the AUC/dose in data set [6] was determined as 0.4 kg·h/L. Moreover, in data set [7], the Papp at 2 h was determined as 24.5 ×10⁻⁶ cm/s.

On to `CNC(=O)c1cc(Oc2ccc(NC(=O)Nc3ccc(Cl)c(C(F)(F)F)c3)cc2)ccn1` [SORAFENIB], for which the half-life in [5] was 6.8 h. In data set [6], this molecule displayed an AUC/dose of 5.8 kg·h/L. Further, the Papp at 2 h in [7] worked out at 11 ×10⁻⁶ cm/s.

For the molecule `CC(C)(O)CNc1cc(Oc2ccc(NC(=O)Nc3cccc(C(F)(F)F)c3)cc2)ncn1`, the IC50 in data set [1] turned out to be 320 nM; in data set [2] it was 1600 nM; in data set [3], 40 nM; in data set [8], 630 nM; in data set [10] it was 50 nM. Moreover, the Ratio IC50 was found to be 8 in the data set filed under Homo sapiens [4] and 16 in the data set listed under Homo sapiens [9]. Moreover, the half-life in [5] is 3.7 h. The molecule also gave an AUC/dose in data set [6] of 2 kg·h/L. Further, the Papp at 2 h in data set [7] was determined as 21 ×10⁻⁶ cm/s.

With `CNc1cc(Oc2ccc(NC(=O)Nc3cccc(C(F)(F)F)c3)cc2)ncn1`, the concentration for half-maximal inhibition (IC50) turned out to be 25 nM in [1]; 500 nM in data set [2]; 40 nM in data set [3]; 1000 nM in data set [8]; 20 nM in [10]. For the same molecule, the Ratio IC50 stood at 0.63 in the data set filed under Homo sapiens [4] and 25 in the data set filed under Homo sapiens [9]. Moreover, the half-life in [5] is 3.2 h. The molecule also gave an AUC/dose in data set [6] of 3.8 kg·h/L. For the same molecule, the Papp at 2 h in data set [7] amounted to 23 ×10⁻⁶ cm/s.

For the molecule `CNS(=O)(=O)c1ccc(N(C)C)c(Nc2ncnc3[nH]ccc23)c1`, half-maximal inhibition in data set [2] (IC50) required 6 nM. In data set [6], the AUC/dose is 0.59 kg·h/L.

On to `CNc1cc(Oc2c(C)cc(NC(=O)Nc3cccc(C(F)(F)F)c3)cc2C)ncn1`, for which the concentration for half-maximal inhibition (IC50) in data set [1] stood at 1000 nM; in data set [2], 2000 nM; in [8], 6300 nM; in [10], 7.9 nM. The Ratio IC50 in the data set listed under Homo sapiens [4] was 40; in the data set listed under Homo sapiens [9], 250. For the same molecule, in data set [5], the half-life was 2.4 h. This molecule also gave an AUC/dose in data set [6] of 1.5 kg·h/L. In data set [7], the Papp at 2 h is 29.5 ×10⁻⁶ cm/s.

Turning to `CCS(=O)(=O)c1ccc(S(=O)(=O)NC)cc1Nc1cc(Nc2ccc(Cl)cn2)ncn1`, the IC50 in [3] was at most 10 nM. For the same molecule, the AUC/dose in [6] came out at 0.56 kg·h/L.

Consider `CCc1cccc(NC(=O)Nc2ccc(Oc3cc(NC)ncn3)cc2)c1`, for which the IC50 in data set [1] is 130 nM; in [2] it was above 2000 nM; in data set [3], 200 nM; in data set [8], 16000 nM. The Ratio IC50 in the data set filed under Homo sapiens [4] stood at 0.65; in the data set filed under Homo sapiens [9], 80.

On to `O=C(Nc1ccc(Oc2ccncn2)cc1)Nc1cccc(C(F)(F)F)c1`, for which the 50% inhibitory concentration (IC50) was 50 nM in data set [1], 1000 nM in data set [2], 160 nM in data set [3] and 630 nM in [8]. Also, the results for the Ratio IC50 in the data set listed under Homo sapiens [4] and in the data set listed under Homo sapiens [9] were 0.3 and 3.9, respectively.

Turning to `CNc1cc(Oc2ccc(NC(=O)Nc3cccc(C(C)(C)C)c3)cc2)ncn1`, the IC50 in data set [1] stood at 25 nM; in data set [2] it was 400 nM; in data set [3], 40 nM; in data set [8], 1000 nM. The results for the Ratio IC50 in the data set filed under Homo sapiens [4] and in the data set listed under Homo sapiens [9] were 0.63 and 25, respectively.

As for `CNS(=O)(=O)c1ccc(N(C)C)c(Nc2ncnc3cc(OC)c(OC)cc23)c1`, in data set [2], the IC50 stood at 1000 nM. This molecule returned an AUC/dose in data set [6] of 0.18 kg·h/L.

In the case of `CCNc1cc(Oc2ccc(NC(=O)Nc3cccc(C(F)(F)F)c3)cc2)ncn1`, the IC50 was found to be 16 nM in data set [1], 500 nM in data set [2], 25 nM in data set [3] and 320 nM in data set [8]. Also, the figures for the Ratio IC50 in the data set listed under Homo sapiens [4] and in the data set listed under Homo sapiens [9] were 0.64 and 13, respectively.

With `O=C(Nc1ccc(Oc2ncnc3[nH]ccc23)cc1)Nc1cccc(C(F)(F)F)c1`, the IC50 stood at 2.5 nM in data set [1], 400 nM in [2], 16 nM in [3] and 500 nM in [8]. Moreover, the Ratio IC50 was 0.16 in the data set filed under Homo sapiens [4] and 31 in the data set listed under Homo sapiens [9].

Regarding `CC(C)Nc1cc(Oc2ccc(NC(=O)Nc3cccc(C(F)(F)F)c3)cc2)ncn1`, the IC50 in data set [1] turned out to be 50 nM; in [2] it was 800 nM; in data set [3] it was 40 nM; in data set [8] it was 400 nM. For the same molecule, the Ratio IC50 in the data set listed under Homo sapiens [4] is 1.3; in the data set filed under Homo sapiens [9], 10.

With `CCc1cc(NC(=O)Nc2cccc(C(F)(F)F)c2)cc(Cl)c1Oc1cc(NC)ncn1`, the IC50 in data set [1] is 2500 nM; in data set [2], above 2000 nM; in [3], at most 10 nM; in [8], 1600 nM; in data set [10], 100 nM. For the same molecule, the Ratio IC50 is above 250 in the data set filed under Homo sapiens [4] and above 160 in the data set filed under Homo sapiens [9]. The molecule further gave a half-life in data set [5] of 3.7 h. This molecule also showed an AUC/dose in data set [6] of 1.2 kg·h/L. Besides, in data set [7], the Papp at 2 h turned out to be 5.9 ×10⁻⁶ cm/s.

For `O=C(Nc1ccc(Oc2ccnc3ccccc23)cc1)Nc1cccc(C(F)(F)F)c1`, the 50% inhibitory concentration (IC50) was determined as 5 nM in data set [1], 200 nM in data set [2], 63 nM in [3] and 100 nM in [8]. In addition, the Ratio IC50 in the data set filed under Homo sapiens [4] came out at 0.08; in the data set filed under Homo sapiens [9], 1.6.

On to `CNc1cc(Oc2ccc(NC(=O)Nc3cccc(C(F)(F)F)c3)c3ccccc23)ncn1`, for which the 50% inhibitory concentration (IC50) in [1] came to 13 nM; in data set [2] it was 100 nM; in data set [3] it was 25 nM; in data set [8], 5 nM. Also, the Ratio IC50 in the data set listed under Homo sapiens [4] was found to be 0.5; in the data set listed under Homo sapiens [9] it was 0.2.

With `CNc1cc(Oc2ccc(NC(=O)Nc3cccc(C(F)(F)F)c3)c(F)c2)ncn1`, the concentration for half-maximal inhibition (IC50) in [1] is 6.3 nM; in data set [2] it was 63 nM; in data set [3], 63 nM; in [8] it was 400 nM. Further, the Ratio IC50 stood at 0.1 in the data set listed under Homo sapiens [4] and 6.3 in the data set filed under Homo sapiens [9].

For the molecule `CNc1cc(Oc2ccc(NC(=O)Nc3cccc(C(C)F)c3)cc2)ncn1` (configuration not stated), the IC50 in data set [1] was 79 nM; in data set [2], 1000 nM; in data set [3] it was 79 nM; in data set [8], 5000 nM. Moreover, the Ratio IC50 in the data set listed under Homo sapiens [4] was 1; in the data set filed under Homo sapiens [9] it was 63.

As to `O=C(Nc1ccc(Oc2cc(O)ncn2)cc1)Nc1cccc(C(F)(F)F)c1`, the IC50 in [1] was 3200 nM; in data set [2] it was above 2000 nM; in data set [3] it was 3200 nM; in data set [8], 1600 nM. Besides, the Ratio IC50 in the data set listed under Homo sapiens [4] came to 1; in the data set filed under Homo sapiens [9], 0.5.

In the case of `CNc1cc(Oc2c(F)cc(NC(=O)Nc3cccc(C(F)(F)F)c3)cc2F)ncn1`, the IC50 is 50 nM in data set [1], above 2000 nM in [2], 20 nM in data set [3] and 500 nM in data set [8]. Moreover, the Ratio IC50 in the data set listed under Homo sapiens [4] stood at 2.5; in the data set filed under Homo sapiens [9], 25.

As for `CC(=O)Nc1cc(Oc2ccc(NC(=O)Nc3cccc(C(F)(F)F)c3)cc2)ncn1`, the 50% inhibitory concentration (IC50) in [1] turned out to be 1.3 nM; in data set [2], 32 nM; in data set [3], 20 nM; in data set [8], 79 nM. In addition, the Ratio IC50 in the data set filed under Homo sapiens [4] was found to be 0.07; in the data set listed under Homo sapiens [9], 4.

For the molecule `CNc1cc(Oc2ccc(NC(=O)Nc3cccc(C(F)(F)F)c3)cc2Cl)ncn1`, the IC50 in [1] came out at 50 nM; in data set [2], 500 nM; in data set [3], 50 nM; in [8], 800 nM. Also, the Ratio IC50 in the data set listed under Homo sapiens [4] worked out at 1; in the data set filed under Homo sapiens [9], 16.

(Values after ChEMBL document CHEMBL4840354, “Identification of Diarylurea Inhibitors of the Cardiac-Specific Kinase TNNI3K by Designing Selectivity Against VEGFR2, p38α, and B-Raf” (J Med Chem, 2021).)
